The results in this text go back to ChEMBL document CHEMBL5113380, “Functionalized quinoxalinones as privileged structures with broad-ranging pharmacological activities” (Eur J Med Chem, 2022).

In general, IC50 refers to the concentration at which inhibition is half-maximal. By Ki is commonly meant a dissociation constant, usually derived from enzyme kinetics or from competition with a known ligand. The term MIC denotes the lowest concentration found to suppress growth. Usually inhibition stands for how much of the control response was suppressed.

SMILES strings stand for the structures. Converted amounts (≈) assume the structure as drawn.

Assay [1] concerns the target T1, Glutamate receptor ionotropic AMPA (Homo sapiens, UniProt P42261+P42262+P42263+P48058). Kind of assay: Displacement of [3H]AMPA from AMPA receptor (unknown origin). The class given is protein-complex assay.
Assay [2] in a line: Displacement of [3H]glycine from AMPA receptor (unknown origin). Format: protein-complex assay, Homo sapiens. For orientation: Loss of bound radioactivity is the signal in a displacement assay; it reports binding, not function.
Assay [3] has as its target T1, Glutamate receptor ionotropic AMPA. Kind of assay: Displacement of [3H]kainate from AMPA receptor (unknown origin). The class given is protein-complex assay.
Assay [4] deals with Glutamate [NMDA] receptor. Nature of the assay: Displacement of [3H]glycine from NMDA receptor (unknown origin). The class given is protein-complex assay, Homo sapiens.
Another assay relates to Candida parapsilosis. Nature of the assay: Antifungal activity against Candida parapsilosis. Format: functional. The conditions noted are these: Lodderomyces parapsilosis.
Assay [5] has as its system Candida. Kind of assay: Antifungal activity against Candida species isolate 1. The class given is functional.
A further assay has as its system Pichia kudriavzevii. Nature of the assay: Antifungal activity against Candida krusei. The class given is functional.
The test system of assay [6] is Candida. Nature of the assay: Antifungal activity against Candida species isolate 3. Format: functional.
A further assay has as its system Nakaseomyces glabratus. Kind of assay: Antifungal activity against Candida glabrata. The class given is functional.
A further assay deals with Candida tropicalis. Kind of assay: Antifungal activity against Candida tropicalis. Format: functional.
Another assay relates to Candida albicans. Nature of the assay: Antifungal activity against Candida albicans. The class given is functional.
Assay [7] relates to Candida. Nature of the assay: Antifungal activity against Candida species isolate 2. The class given is functional.
Assay [8] in a line: Inhibition of ALR1 (unknown origin) relative to control. More on the design: concentration or dose not given beside the values. The conditions noted are these: Homo sapiens; concentration not given here.
A short description of assay [9]: Antioxidant activity assessed as DPPH radical scavenging activity at 100 uM. The class given is functional. (DPPH is a stable violet radical that fades when it is reduced.)
Assay [10] can be described thus: Antioxidant activity assessed as DPPH radical scavenging activity at 50 uM. The class given is functional.
Assay [11] is described as follows: Antioxidant activity assessed as DPPH radical scavenging activity at 10 uM. The class given is functional.
Assay [12] in a line: Inhibition of ALR2 (unknown origin). More on the design: species or system Homo sapiens.
A short description of assay [13]: Antioxidant activity assessed as DPPH radical scavenging activity. The class given is functional. The conditions noted are these: read-out: IC50.
Another assay has as its system MRC5. Kind of assay: Antiproliferative activity against human MRC5 cells. Format: functional, cell-based.
A further assay concerns A549. Kind of assay: Antiproliferative activity against human A549 cells. Format: functional, cell-based.
The subject of another assay is HeLa. Nature of the assay: Antiproliferative activity against human HeLa cells. Format: functional, cell-based.
The subject of the next assay is LS174T. Nature of the assay: Antiproliferative activity against human LS174T cells. The class given is functional, cell-based.
A further assay relates to Staphylococcus aureus. Nature of the assay: Antibacterial activity against Staphylococcus aureus. The class given is functional.
A further assay deals with Escherichia coli. Nature of the assay: Antibacterial activity against Escherichia coli assessed as diameter zone of inhibition. Format: functional.
Assay [14] concerns the target Human immunodeficiency virus type 1 reverse transcriptase (Human immunodeficiency virus 1) (UniProt Q72547). Kind of assay: Inhibition of HIV1 reverse transcriptase at 10 uM relative to control.
Assay [15] has the same target. Kind of assay: Inhibition of HIV1 reverse transcriptase at 100 uM relative to control.
In assay [16] the target is Human immunodeficiency virus type 1 reverse transcriptase (Human immunodeficiency virus 1, UniProt Q72547). Kind of assay: Inhibition of HIV1 reverse transcriptase.

With `CN1CCc2c([N+](=O)[O-])cc3[nH]c(=O)c(=O)[nH]c3c2C1`, the IC50 in assay [1] turned out to be 0.063 µM; in assay [2], 0.37 µM; in [3], 0.368 µM.

Consider `Cc1cc2[nH]c(=O)c(=O)n(CC(=O)O)c2cc1C`, for which the Ki came to 13.8 µM in [4] and 0.7 µM in assay [1].

As to `O=c1[nH]c2ccc(C(F)(F)F)cc2nc1C(F)(F)F`, the MIC in the assay with Candida parapsilosis is 125 µg/mL (≈ 443 µM); against Candida [5] it was 125 µg/mL (≈ 443 µM); in the assay on Pichia kudriavzevii, 250 µg/mL (≈ 886 µM); against Candida [6] it was 125 µg/mL (≈ 443 µM); against Nakaseomyces glabratus it was 250 µg/mL (≈ 886 µM); in the assay on Candida tropicalis, 250 µg/mL (≈ 886 µM). The MIC in the assay on Candida albicans was determined as 8 µg/mL (≈ 28.4 µM); in the assay on Candida [7], 125 µg/mL (≈ 443 µM).

`O=c1c(/C=C/c2ccc(O)c(O)c2)nc2ccccc2n1-c1cnn(O)c1` had an inhibition in assay [8] of 30.5%. Further, the Activity in assay [9] came to 95.6%; in assay [10], 72.5%; in [11] it was 40.8%. Also, the IC50 in assay [12] was 0.148 µM; in [13], 20.9 µM.

Regarding `COc1ccc(C(=O)/C=C2/Nc3ccccc3NC2=O)cc1`, the IC50 came to 190 µM in the assay with MRC5, 66.9 µM in the assay with A549, 15.2 µM in the assay on HeLa and 24.3 µM with LS174T.

As for `CCCc1nnc2c(O)nc3cc(Cl)c(Cl)cc3n12`, the IC50 in assay [4] stood at 3.92 µM.

Turning to `O=C(O)Cn1c(=O)c(=O)[nH]c2cc(Cl)c(Cl)cc21`, the Ki is 0.11 µM in assay [4] and 2.1 µM in assay [1].

For the compound `O=c1[nH]c2ccc(C(F)(F)F)cc2nc1CBr`, the MIC with Candida parapsilosis was 250 µg/mL (≈ 814 µM); against Candida [5], 15.6 µg/mL (≈ 50.8 µM); with Pichia kudriavzevii, 62.5 µg/mL (≈ 204 µM); against Staphylococcus aureus, 31.2 µg/mL (≈ 102 µM); with Candida [6], 62.5 µg/mL (≈ 204 µM); against Nakaseomyces glabratus, 62.5 µg/mL (≈ 204 µM). The MIC was greater than 500 µg/mL with Candida tropicalis, 31.2 µg/mL (≈ 102 µM) in the assay with Candida albicans and 62.5 µg/mL (≈ 204 µM) in the assay with Candida [7].

With `O=C1CN(C(=O)CNc2ccccc2O)c2ccccc2N1`, in the assay with Escherichia coli, the “diameter of the inhibition zone (DIZ)” value came to 11 mm.

`Oc1nc2cc(Cl)c(Cl)cc2n2ccnc12`: the values for the IC50 in assay [4] and in assay [1] were 1.26 µM and 7.38 µM, respectively.

In turn, `O=C(O)Cn1c(=O)c(/C=C/c2ccc(O)c(O)c2)nc2ccc(O)cc21` showed an inhibition in assay [8] of 42.1%. The Activity worked out at 96.2% in assay [9], 82.1% in assay [10] and 70.5% in [11]. In assay [12], this compound returned an IC50 of 0.102 µM.

On to `CCC(C)CN1CCc2c(Br)cc3nc(O)c(O)nc3c2C1` (configuration not stated), for which the values for the IC50 in assay [1], in [2] and in assay [3] were greater than 100 µM, greater than 100 µM and 2.9 µM, respectively.

Consider `O=c1[nH]c2cc(C(F)(F)F)ccc2nc1CBr`, for which the MIC in the assay on Candida parapsilosis was greater than 125 µg/mL; in the assay with Candida [5], 62.5 µg/mL (≈ 204 µM); in the assay with Pichia kudriavzevii it was 125 µg/mL (≈ 407 µM); against Staphylococcus aureus, 62.5 µg/mL (≈ 204 µM); in the assay on Candida [6] it was less than 3.5 µg/mL; with Nakaseomyces glabratus, greater than 125 µg/mL. Moreover, the MIC in the assay on Candida tropicalis is 125 µg/mL (≈ 407 µM); in the assay with Candida albicans, greater than 125 µg/mL.

`C=C(C)CCC(=O)/C=C1/Nc2ccccc2NC1=O`: the IC50 worked out at 174 µM in the assay on MRC5, 86.2 µM in the assay on A549, 25.1 µM in the assay on HeLa and 33.5 µM in the assay with LS174T.

For `CN1CCc2c(c([N+](=O)[O-])cc3[nH]c(=O)c(=O)[nH]c23)C1`, the IC50 in assay [1] is 0.29 µM; in assay [2], 4.9 µM; in assay [3], 0.38 µM.

As for `CCC(=O)N1CC(=O)Nc2ccccc21`, the values for the inhibition in [14] and in [15] were 91% and 99%, respectively. The compound further had an IC50 in assay [16] of 0.63 µM.

In the case of `O=c1[nH]c2cc(-n3ccnc3)c([N+](=O)[O-])cc2[nH]c1=O` [YM-90K], the results for the Ki in [1], in assay [2] and in assay [3] were 0.084 µM, 37 µM and 2.2 µM, respectively.
